US8785614B2, “Aberrantly methylated genes in pancreatic cancer” (The Johns Hopkins University, priority 2003, dated 2014)

How the values were obtained:
[1] = tested on: Hs766T pancreatic cancer cell line; assay: Oligonucleotide microarray gene expression after TSA (1 μM, 24 h) vs mock; type: cell-based, human
Excerpt: (§1) These include a large panel of novel targets for silencing by histone deacetylation including several known tumor suppressor genes or cell cycle-regulatory genes (ING1, p57KIP2, CHES1, CHFR, GADD45B, and others).

[2] = tested on: AsPC1 pancreatic cancer cell line; assay: as above; type: cell-based, human
Excerpt: as §1

In the case of `CC(/C=C/C(=O)NO)=C\[C@@H](C)C(=O)c1ccc(N(C)C)cc1` [TSA, trichostatin A], the “Fold-change after TSA treatment” value ([1]; ADM, Hs766T) is reported as 1.86 fold, the “Fold-change after TSA treatment” value ([1]; ANGPT1, Hs766T) is reported as 6.72 fold and the “Fold-change after TSA treatment” value ([1]; AREG, Hs766T) is reported as 2.02 fold. For the same molecule, the “Fold-change after TSA treatment” value ([1]; ATF3, Hs766T) was 1.73 fold, the “Fold-change after TSA treatment” value ([1]; BIK, Hs766T) was 2.35 fold and the “Fold-change after TSA treatment” value ([1]; CACNA1G, Hs766T) was 2.72 fold. The “Fold-change after TSA treatment” value ([1]; CAPN5, Hs766T) was 1.06 fold, the “Fold-change after TSA treatment” value ([1]; CDH8, Hs766T) was −1.11 fold and the “Fold-change after TSA treatment” value ([1]; CDKN1C, Hs766T) was 6.57 fold. The “Fold-change after TSA treatment” value ([1]; CGR11, Hs766T) was 1.82 fold, the “Fold-change after TSA treatment” value ([1]; CHES1, Hs766T) was −1.11 fold and the “Fold-change after TSA treatment” value ([1]; CHFR, Hs766T) was 8 fold. The “Fold-change after TSA treatment” value ([1]; CLDN15, Hs766T) was −1.81 fold, the “Fold-change after TSA treatment” value ([1]; EDR1, Hs766T) was −1.26 fold and the “Fold-change after TSA treatment” value ([1]; EGR4, Hs766T) was 6.49 fold. The “Fold-change after TSA treatment” value ([1]; EREG, Hs766T) was 7.43 fold, the “Fold-change after TSA treatment” value ([1]; GADD45B, Hs766T) was 2.01 fold and the “Fold-change after TSA treatment” value ([1]; GAGE1, Hs766T) was 14.57 fold. For the same molecule, the “Fold-change after TSA treatment” value ([1]; GAGE2, Hs766T) was 432.64 fold, the “Fold-change after TSA treatment” value ([1]; GAGE3, Hs766T) was 184.93 fold and the “Fold-change after TSA treatment” value ([1]; GAGE4, Hs766T) was 234.36 fold. For the same molecule, the “Fold-change after TSA treatment” value ([1]; GAGE6, Hs766T) was 237.45 fold, the “Fold-change after TSA treatment” value ([1]; GAGE7B, Hs766T) was 331.97 fold and the “Fold-change after TSA treatment” value ([1]; H1 historic family, member 2 (BC002649), Hs766T) was 5.8 fold. The “Fold-change after TSA treatment” value ([1]; HEP27, Hs766T) was 1631 fold, the “Fold-change after TSA treatment” value ([1]; HMOX1, Hs766T) was 2.56 fold and the “Fold-change after TSA treatment” value ([1]; HPSE, Hs766T) was −1.12 fold. The “transcripts with marked induction” value ([1]; Hs766T) was 349 transcripts, the “transcripts with marked induction, share of transcripts analyzed” value ([1]; Hs766T) was 1.9% and the “Fold-change after TSA treatment” value ([1]; ID2, Hs766T) was 5 fold. The “Fold-change after TSA treatment” value ([1]; ING1, Hs766T) was 11.83 fold, the “Fold-change after TSA treatment” value ([1]; KLK12, Hs766T) was 1.54 fold and the “Fold-change after TSA treatment” value ([1]; MAGE1, Hs766T) was 0.49 fold. For the same molecule, the “Fold-change after TSA treatment” value ([1]; MBD1, Hs766T) was 7.94 fold, the “Fold-change after TSA treatment” value ([1]; MMP1, Hs766T) was 1.63 fold and the “Fold-change after TSA treatment” value ([1]; NGFR, Hs766T) was 4.11 fold. The “Fold-change after TSA treatment” value ([1]; NOTCH3, Hs766T) was 2.06 fold, the “Fold-change after TSA treatment” value ([1]; P-glycoprotein (mdr1), Hs766T) was 5.74 fold and the “Fold-change after TSA treatment” value ([1]; SPANXA1, Hs766T) was 15.92 fold. For the same molecule, the “Fold-change after TSA treatment” value ([1]; STC1, Hs766T) was −1.31 fold, the “Fold-change after TSA treatment” value ([1]; UCPH, Hs766T) was −1.45 fold and the “Fold-change after TSA treatment” value ([1]; ULBP2, Hs766T) was 3.47 fold. For the same molecule, the “Fold-change after TSA treatment” value ([1]; WNT4, Hs766T) was 0.81 fold, the “Fold-change after TSA treatment” value ([1]; candidate tumor suppressor gene 21 protein (AF040708), Hs766T) was 5.14 fold and the “Fold-change after TSA treatment” value ([1]; connective tissue growth factor (M92934), Hs766T) was 43 fold. For the same molecule, the “Fold-change after TSA treatment” value ([1]; hemoglobin, alpha 1 (HBAI), Hs766T) was 1.55 fold, the “Fold-change after TSA treatment” value ([1]; interleukin 8, Hs766T) was −1.42 fold and the “Fold-change after TSA treatment” value ([1]; period homolog 1 (PERI), Hs766T) was 9.7 fold. For the same molecule, the “Fold-change after TSA treatment” value ([1]; prostate differentiation factor (AF003934), Hs766T) was 3.17 fold, the “Fold-change after TSA treatment” value ([1]; protease inhibitor 12 (neuroserpin) (SERPINU), Hs766T) was 1.95 fold and the “Fold-change after TSA treatment” value ([1]; synovial sarcoma, X breakpoint 1 (BC001003), Hs766T) was 38.74 fold. For the same molecule, the “Fold-change after TSA treatment” value ([1]; tissue factor pathway inhibitor-2 (L27624), Hs766T) was 120.09 fold, the “Fold-change after TSA treatment” value ([2]; ADM, AsPC1) was 7.6 fold and the “Fold-change after TSA treatment” value ([2]; ANGPT1, AsPC1) was −1.77 fold. For the same molecule, the “Fold-change after TSA treatment” value ([2]; AREG, AsPC1) was 18.35 fold, the “Fold-change after TSA treatment” value ([2]; ATF3, AsPC1) was 8.73 fold and the “transcripts with marked induction” value ([2]; AsPC1) was 424 transcripts. For the same molecule, the “transcripts with marked induction, share of transcripts analyzed” value ([2]; AsPC1) was 2.3%, the “Fold-change after TSA treatment” value ([2]; BIK, AsPC1) was 1.65 fold and the “Fold-change after TSA treatment” value ([2]; CACNA1G, AsPC1) was 9.95 fold. The “Fold-change after TSA treatment” value ([2]; CAPN5, AsPC1) was 1.73 fold, the “Fold-change after TSA treatment” value ([2]; CDH8, AsPC1) was 1.11 fold and the “Fold-change after TSA treatment” value ([2]; CDKN1C, AsPC1) was 10.62 fold. The “Fold-change after TSA treatment” value ([2]; CGR11, AsPC1) was −1.39 fold, the “Fold-change after TSA treatment” value ([2]; CHES1, AsPC1) was 1.87 fold and the “Fold-change after TSA treatment” value ([2]; CHFR, AsPC1) was −1.1 fold. The “Fold-change after TSA treatment” value ([2]; CLDN15, AsPC1) was −4.26 fold, the “Fold-change after TSA treatment” value ([2]; EDR1, AsPC1) was 4.56 fold and the “Fold-change after TSA treatment” value ([2]; EGR4, AsPC1) was 37.6 fold. The “Fold-change after TSA treatment” value ([2]; EREG, AsPC1) was 1.91 fold, the “Fold-change after TSA treatment” value ([2]; GADD45B, AsPC1) was 2.65 fold and the “Fold-change after TSA treatment” value ([2]; GAGE1, AsPC1) was 0.66 fold. The “Fold-change after TSA treatment” value ([2]; GAGE2, AsPC1) was −2.5 fold, the “Fold-change after TSA treatment” value ([2]; GAGE3, AsPC1) was −5.88 fold and the “Fold-change after TSA treatment” value ([2]; GAGE4, AsPC1) was −1.67 fold. The “Fold-change after TSA treatment” value ([2]; GAGE6, AsPC1) was −1.16 fold, the “Fold-change after TSA treatment” value ([2]; GAGE7B, AsPC1) was −4.88 fold and the “Fold-change after TSA treatment” value ([2]; H1 historic family, member 2 (BC002649), AsPC1) was 6.64 fold. For the same molecule, the “Fold-change after TSA treatment” value ([2]; HEP27, AsPC1) was 413.37 fold, the “Fold-change after TSA treatment” value ([2]; HMOX1, AsPC1) was 1.73 fold and the “Fold-change after TSA treatment” value ([2]; HPSE, AsPC1) was 2.18 fold. The “Fold-change after TSA treatment” value ([2]; ID2, AsPC1) was 10.26 fold, the “Fold-change after TSA treatment” value ([2]; ING1, AsPC1) was 13.22 fold and the “Fold-change after TSA treatment” value ([2]; KLK12, AsPC1) was 7.63 fold. The “Fold-change after TSA treatment” value ([2]; MAGE1, AsPC1) was 1.05 fold, the “Fold-change after TSA treatment” value ([2]; MBD1, AsPC1) was 2.66 fold and the “Fold-change after TSA treatment” value ([2]; MMP1, AsPC1) was 9.05 fold. For the same molecule, the “Fold-change after TSA treatment” value ([2]; NGFR, AsPC1) was 0.76 fold, the “Fold-change after TSA treatment” value ([2]; NOTCH3, AsPC1) was 7.93 fold and the “Fold-change after TSA treatment” value ([2]; P-glycoprotein (mdr1), AsPC1) was 1.08 fold. For the same molecule, the “Fold-change after TSA treatment” value ([2]; SPANXA1, AsPC1) was −0.78 fold, the “Fold-change after TSA treatment” value ([2]; STC1, AsPC1) was 15.9 fold and the “Fold-change after TSA treatment” value ([2]; UCPH, AsPC1) was 5.48 fold. The “Fold-change after TSA treatment” value ([2]; ULBP2, AsPC1) was 73.47 fold, the “Fold-change after TSA treatment” value ([2]; WNT4, AsPC1) was 5.72 fold and the “Fold-change after TSA treatment” value ([2]; candidate tumor suppressor gene 21 protein (AF040708), AsPC1) was −1.47 fold. For the same molecule, the “Fold-change after TSA treatment” value ([2]; connective tissue growth factor (M92934), AsPC1) was 17.38 fold, the “Fold-change after TSA treatment” value ([2]; hemoglobin, alpha 1 (HBAI), AsPC1) was 20.5 fold and the “Fold-change after TSA treatment” value ([2]; interleukin 8, AsPC1) was 44.67 fold. For the same molecule, the “Fold-change after TSA treatment” value ([2]; period homolog 1 (PERI), AsPC1) was 20.29 fold, the “Fold-change after TSA treatment” value ([2]; prostate differentiation factor (AF003934), AsPC1) was 4.45 fold and the “Fold-change after TSA treatment” value ([2]; protease inhibitor 12 (neuroserpin) (SERPINU), AsPC1) was 8 fold. The “Fold-change after TSA treatment” value ([2]; synovial sarcoma, X breakpoint 1 (BC001003), AsPC1) was 1.74 fold and the “Fold-change after TSA treatment” value ([2]; tissue factor pathway inhibitor-2 (L27624), AsPC1) was 0.4 fold.
